Strand notation (5' to 3'): a small letter for the sugar, then the base; units joined by * are phosphorothioate-linked, units joined directly phosphodiester-linked; [ ] holds rarer units or linkages, { } end groups; capitals alone tell only the bases. e = 2'-O-(2-methoxyethyl) (MOE); [5mC] = 5-methylcytosine; d = 2'-deoxy (DNA)
How the values were obtained:
[1] = test system: human Factor 7 mRNA; assay: Dose-dependent antisense inhibition of human Factor 7 in HepB3 cells, electroporation; assay type: cell-based
In short: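 HepB3 cells, 20,000/well, electroporated with gapmers at 3.125–100 μM; about 16 h treatment. Factor 7 mRNA by qRT-PCR with primer probe set RTS 2927, normalized to RIBOGREEN total RNA; percent inhibition versus untreated cells.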

[2] = test system: human Factor 7 mRNA; assay: Dose-dependent antisense inhibition of human Factor 7 in HepB3 cells, lipofectin; assay type: cell-based; conditions: for percent inhibition of Factor 7 mRNA, relative to untreated control cells: HepB3 cells, approx. 16 hours (Table 14); for percent inhibition of Factor 7: approximately 16 hours
In short: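 HepB3 cells (4,000/well) lipofectin-transfected with antisense oligonucleotide at 3.125 or 6.25 up to 100 nM for ~16 h. Factor 7 mRNA measured by real-time RT-PCR with primer probe set RTS 2927, adjusted to RIBOGREEN total RNA; expressed as percent inhibition versus untreated control cells.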

[3] = 3.125 μM, approx. 16 hours (Table 15, Example 7)
[4] = 3.125 μM, approx. 16 hours (Table 16, Example 8 confirmation)
[5] = 6.25 μM, approx. 16 hours (Table 15, Example 7)
[6] = 6.25 μM, approx. 16 hours (Table 16, Example 8 confirmation)
[7] = 12.5 μM, approx. 16 hours (Table 15, Example 7)
[8] = 12.5 μM, approx. 16 hours (Table 16, Example 8 confirmation)
[9] = 25 μM, approx. 16 hours (Table 15, Example 7)
[10] = 25 μM, approx. 16 hours (Table 16, Example 8 confirmation)
[11] = 50 μM, approx. 16 hours (Table 15, Example 7)
[12] = 50 μM, approx. 16 hours (Table 16, Example 8 confirmation)
[13] = 100 μM, approx. 16 hours (Table 15, Example 7)
[14] = 100 μM, approx. 16 hours (Table 16, Example 8 confirmation)

Row | Substance | percent inhibition of Factor 7 mRNA, relative to untreated control cells [1, 3] | percent inhibition of Factor 7 mRNA, relative to untreated control cells [1, 4] | percent inhibition of Factor 7 mRNA, relative to untreated control cells [1, 5] | percent inhibition of Factor 7 mRNA, relative to untreated control cells [1, 6] | percent inhibition of Factor 7 mRNA, relative to untreated control cells [1, 7] | percent inhibition of Factor 7 mRNA, relative to untreated control cells [1, 8] | percent inhibition of Factor 7 mRNA, relative to untreated control cells [1, 9] | percent inhibition of Factor 7 mRNA, relative to untreated control cells [1, 10] | percent inhibition of Factor 7 mRNA, relative to untreated control cells [1, 11] | percent inhibition of Factor 7 mRNA, relative to untreated control cells [1, 12] | percent inhibition of Factor 7 mRNA, relative to untreated control cells [1, 13] | percent inhibition of Factor 7 mRNA, relative to untreated control cells [1, 14] | percent inhibition of Factor 7 mRNA, relative to untreated control cells ([2]; 3.125 nM) | percent inhibition of Factor 7 mRNA, relative to untreated control cells ([2]; 12.5 nM) | percent inhibition of Factor 7 mRNA, relative to untreated control cells ([2]; 25 nM) | percent inhibition of Factor 7 mRNA, relative to untreated control cells ([2]; 50 nM) | percent inhibition of Factor 7 mRNA, relative to untreated control cells ([2]; 100 nM) | percent inhibition of Factor 7 mRNA, relative to untreated control cells [2] | percent inhibition of Factor 7 ([2]; Table 3, 3.125 nM) | percent inhibition of Factor 7 ([2]; Table 3, 6.25 nM) | further results
1 | 407935 (antisense eA*eT*eG*e[5mC]*eA*dT*dG*dG*dT*dG*dA*dT*dG*d[5mC]*dT*eT*e[5mC]*eT*eG*eA) [compound 407935] | 37% | 63% | 47% | 79% | 67% | 84% | 73% | 90% | 80% | 90% | 87% | 91% | 19% | 58% | 70% | 85% | 87% | 39% | 57% | 76% | percent inhibition of Factor 7 ([2]; Table 3, 12.5 nM): 78%; percent inhibition of Factor 7 ([2]; Table 3, 25.0 nM): 89%; percent inhibition of Factor 7 ([2]; Table 3, 50.0 nM): 90%; percent inhibition of Factor 7 ([2]; Table 3, 100.0 nM): 89%; percent inhibition of Factor 7 ([2]; Table 7, 6.25 nM): 38%; percent inhibition of Factor 7 ([2]; Table 7, 12.5 nM): 53%; percent inhibition of Factor 7 ([2]; Table 7, 25.0 nM): 70%; percent inhibition of Factor 7 ([2]; Table 7, 50.0 nM): 82%; percent inhibition of Factor 7 ([2]; Table 7, 100.0 nM): 86%
2 | 407939 (antisense eT*eG*e[5mC]*eA*eG*d[5mC]*d[5mC]*d[5mC]*dG*dG*d[5mC]*dA*d[5mC]*d[5mC]*d[5mC]*eA*eG*e[5mC]*eG*eA) [compound 407939] | 18% | 35% | 28% | 60% | 42% | 60% | 56% | 73% | 68% | 81% | 82% | 83% | 17% | 57% | 75% | 80% | 83% | 35% | 62% | 79% | percent inhibition of Factor 7 ([2]; Table 3, 12.5 nM): 83%; percent inhibition of Factor 7 ([2]; Table 3, 25.0 nM): 91%; percent inhibition of Factor 7 ([2]; Table 3, 50.0 nM): 92%; percent inhibition of Factor 7 ([2]; Table 3, 100.0 nM): 92%; percent inhibition of Factor 7 ([2]; Table 7, 6.25 nM): 37%; percent inhibition of Factor 7 ([2]; Table 7, 12.5 nM): 57%; percent inhibition of Factor 7 ([2]; Table 7, 25.0 nM): 77%; percent inhibition of Factor 7 ([2]; Table 7, 50.0 nM): 84%; percent inhibition of Factor 7 ([2]; Table 7, 100.0 nM): 87%

— US9029337B2, “Modulation of factor 7 expression” (Isis Pharmaceuticals, Inc., priority 2007, dated 2015)
